Values quoted from earlier work as cited in patent US20190346442A1, “IMPROVED HLA EPITOPE PREDICTION” (The Broad Institute, Inc., priority 2016, published 2019).

Assays:
[1] = test system: ovarian carcinoma patients; settings: poly-ICLC in combination with NY-ESO-1 peptide vaccine, in addition to Montanide; phase 1
[2] = test system: healthy human volunteers; settings: 8 volunteers, one single s.c. administration, versus 4 subjects receiving placebo; whole blood
[3] = test system: advanced hormone refractory prostate cancer patients; settings: personalized vaccination combined with a low dose of estramustine

Compound	patients showing induction of CD4+ and CD8+ T cell, as well as antibody responses to the peptide [1] [%]	differential expression of genes versus placebo [2]	patients with >50% decrease in serum prostate specific antigen (PSA) [3] [%]
Polyinosinic-Polycytidylic Acid-poly-L-lysine Carboxymethylcellulose [poly-ICLC]	> 90	up to 212 genes	–
C[C@]12CC[C@@H]3c4ccc(OC(=O)N(CCCl)CCCl)cc4CC[C@H]3[C@@H]1CC[C@@H]2O [estramustine]	–	–	54
